Patent US10155768B2, “Fused pyrimidine compound or salt thereof” (TAIHO PHARMACEUTICAL CO., LTD., priority 2016, dated 2018)

Test: not given
Conditions: mouse, microsomes, 0.5 h

First: C/C=C/c1ccc(NC(=O)c2cn(C3(C)CC3)c3ncnc(N)c23)cc1 [Example 107, (E)-4-amino-7-(1-methylcyclopropyl)-N-(4-(prop-1-en-1-yl)phenyl)-7H-pyrrolo[2,3-d]pyrimidine-5-carboxamide]
Second: C#Cc1ccc(NC(=O)c2cn(C3(C)CC3)c3ncnc(N)c23)cc1 [Example 108, 4-amino-N-(4-ethynylphenyl)-7-(1-methylcyclopropyl)-7H-pyrrolo[2,3-d]pyrimidine-5-carboxamide]
The “Remaining (%)” value of the first is higher: 63% for the first, 60% for the second.

Same assay, conditions: mouse, microsomes, 0.5 h, 1 μM

For `C/C=C/c1ccc(NC(=O)c2c(OCC)n(C3(C)CC3)c3ncnc(N)c23)cc1` [Example 117, (E)-4-amino-6-ethoxy-7-(1-methylcyclopropyl)-N-(4-(prop-1-en-1-yl)phenyl)-7H-pyrrolo[2,3-d]pyrimidine-5-carboxamide], the “Remaining (%)” value was 53%.

Test: Evaluation of stability in liver microsome
Conditions: mouse liver microsome 0.25 mg/mL, 1 μM test compound, 37° C. for 30 minutes
Procedure: Solutions of the test compounds in DMSO/acetonitrile (the final concentration of each test compound was 1 μM, the final concentration of DMSO was 0.01%, and the final concentration of acetonitrile was 1%) were individually added to a liver microsome mixture solution (mouse liver microsome with a final concentration of 0.25 mg/mL, a potassium phosphate buffer with a final concentration of 100 mM, and magnesium chloride with a final concentration of 3 mM), and each mixture was pre-incubated at 37° C. for 5 minutes. […] After incubation at 37° C. for 30 minutes, a double amount of ethanol was added thereto to terminate the reaction, thereby obtaining post-reaction samples. A double amount of ethanol was added to each of the remaining mixture solutions, and a NADPH-generating system was further added thereto, thereby obtaining pre-reaction samples. The pre-reaction samples and post-reaction samples were centrifuged at 2000×g, and their supernatant was filtered through a glass filter. Each filtrate was then introduced into LC-MS/MS, and MS/MS peaks of the test compounds were detected. From the ratio of the post-reaction MS/MS peak to the pre-reaction MS/MS peak of the test compounds, the percentage of the remaining test compounds (remaining %) was calculated.

Compared with `COCc1ccc(NC(=O)c2c(C#Cc3ccsc3)n(C3(C)CC3)c3ncnc(N)c23)cc1` [Example 176, 4-amino-N-(4-(methoxymethyl)phenyl)-7-(1-methylcyclopropyl)-6-(thiophen-3-ylethynyl)-7H-pyrrolo[2,3-d]pyrimidine-5-carboxamide], `COCc1ccc(NC(=O)c2c(C#Cc3cncnc3)n(C3(C)CC3)c3ncnc(N)c23)cc1` [Example 196, 4-amino-N-(4-(methoxymethyl)phenyl)-7-(1-methylcyclopropyl)-6-(pyrimidin-5-ylethynyl)-7H-pyrrolo[2,3-d]pyrimidine-5-carboxamide] is lower in “Remaining (%)” value: 70% for the first, 53% for the second.

Going from `COCc1ccc(NC(=O)c2c(C#CC3(O)CCOC3)n(C3(C)CC3)c3ncnc(N)c23)cc1` (centres unmarked) [Example 177, 4-amino-6-((3-hydroxytetrahydrofuran-3-yl)ethynyl)-N-(4-(methoxymethyl)phenyl)-7-(1-methylcyclopropyl)-7H-pyrrolo[2,3-d]pyrimidine-5-carboxamide] to `COCc1ccc(NC(=O)c2c(C#CC3(O)CCOCC3)n(C3(C)CC3)c3ncnc(N)c23)cc1` [Example 185, 4-amino-6-((4-hydroxytetrahydro-2H-pyran4-yl)ethynyl)-N-(4-(methoxymethyl)phenyl)-7-(1-methylcyclopropyl)-7H-pyrrolo[2,3-d]pyrimidine-5-carboxamide], the “Remaining (%)” value rises from 72% to 80%.

Going from `COCc1ccc(NC(=O)c2c(C#CCN3CC[S+]([O-])CC3)n(C3(C)CC3)c3ncnc(N)c23)cc1` [Example 178, 4-amino-N-(4-(methoxymethyl)phenyl)-7-(1-methylcyclopropyl)-6-(3-(1-oxidethiomorpholino)prop-1-yn-1-yl)-7H-pyrrolo[2,3-d]pyrimidine-5-carboxamide] to `COCc1ccc(NC(=O)c2c(C#CCCN3CCOCC3)n(C3(C)CC3)c3ncnc(N)c23)cc1` [Example 187, 4-amino-N-(4-(methoxymethyl)phenyl)-7-(1-methylcyclopropyl)-6-(4-morpholinobut-1-yn-1-yl)-7H-pyrrolo[2,3-d]pyrimidine-5-carboxamide], the “Remaining (%)” value falls from 88% to 68%.

Going from `COCc1ccc(NC(=O)c2c(-c3ccc(CO)nc3)n(C3(C)CC3)c3ncnc(N)c23)cc1` [Example 179, 4-amino-6-(6-(hydroxymethyl)pyridin-3-yl)-N-(4-(methoxymethyl)phenyl)-7-(1-methylcyclopropyl)-7H-pyrrolo[2,3-d]pyrimidine-5-carboxamide] to `COCc1ccc(NC(=O)c2c(-c3ccc(F)nc3)n(C3(C)CC3)c3ncnc(N)c23)cc1` [Example 190, 4-amino-6-(6-fluoropyridin-3-yl)-N-(4-(methoxymethyl)phenyl)-7-(1-methylcyclopropyl)-7H-pyrrolo[2,3-d]pyrimidine-5-carboxamide], the “Remaining (%)” value falls from 85% to 58%.

First: COCc1ccc(NC(=O)c2c(C#Cc3cn(C)nc3C)n(C3(C)CC3)c3ncnc(N)c23)cc1 [Example 181, 4-amino-6-((1,3-dimethyl-1H-pyrazol-4-yl)ethynyl)-N-(4-(methoxymethyl)phenyl)-7-(1-methylcyclopropyl)-7H-pyrrolo[2,3-d]pyrimidine-5-carboxamide]
Second: COCc1ccc(NC(=O)c2c(C#Cc3cnn(C)c3C)n(C3(C)CC3)c3ncnc(N)c23)cc1 [Example 182, 4-amino-6-((1,5-dimethyl-1H-pyrazol-4-yl)ethynyl)-N-(4-(methoxymethyl)phenyl)-7-(1-methylcyclopropyl)-7H-pyrrolo[2,3-d]pyrimidine-5-carboxamide]
The “Remaining (%)” value of the first is higher: 62% for the first, 61% for the second.

Compared with `COCc1ccc(NC(=O)c2c(C#CC3CCN(C)CC3)n(C3(C)CC3)c3ncnc(N)c23)cc1` [Example 183, 4-amino-N-(4-(methoxymethyl)phenyl)-7-(1-methylcyclopropyl)-6-((1-methylpiperidin-4-yl)ethynyl)-7H-pyrrolo[2,3-d]pyrimidine-5-carboxamide], `COCc1ccc(NC(=O)c2c(C#CCC3CCCCC3)n(C3(C)CC3)c3ncnc(N)c23)cc1` [Example 199, 4-amino-6-(3-cyclohexylprop-1-yn-1-yl)-N-(4-(methoxymethyl)phenyl)-7-(1-methylcyclopropyl)-7H-pyrrolo[2,3-d]pyrimidine-5-carboxamide] is higher in “Remaining (%)” value: 77% for the first, 80% for the second.

First: COCc1ccc(NC(=O)c2c(C#Cc3c(C)noc3C)n(C3(C)CC3)c3ncnc(N)c23)cc1 [Example 184, 4-amino-6-((3,5-dimethylisoxazol-4-yl)ethynyl)-N-(4-(methoxymethyl)phenyl)-7-(1-methylcyclopropyl)-7H-pyrrolo[2,3-d]pyrimidine-5-carboxamide]
Second: COCc1ccc(NC(=O)c2c(C#Cc3cncs3)n(C3(C)CC3)c3ncnc(N)c23)cc1 [Example 193, 4-amino-N-[4-(methoxymethyl)phenyl]-7-(1-methylcyclopropyl)-6-(thiazol-5-ylethynyl)-7H-pyrrolo[2,3-d]pyrimidine-5-carboxamide]
The “Remaining (%)” value of the first is higher: 58% for the first, 51% for the second.

Going from `COCc1ccc(NC(=O)c2c(C#CCC(C)O)n(C3(C)CC3)c3ncnc(N)c23)cc1` (centres unmarked) [Example 188, 4-amino-6-(4-hydroxypent-1-yn-1-yl)-N-(4-(methoxymethyl)phenyl)-7-(1-methylcyclopropyl)-7H-pyrrolo[2,3-d]pyrimidine-5-carboxamide] to `COCc1ccc(NC(=O)c2c(C#CCN(C)C)n(C3(C)CC3)c3ncnc(N)c23)cc1` [Example 198, 4-amino-6-(3-(dimethylamino)prop-1-yn-1-yl)-N-(4-(methoxymethyl)phenyl)-7-(1-methylcyclopropyl)-7H-pyrrolo[2,3-d]pyrimidine-5-carboxamide], the “Remaining (%)” value falls from 68% to 57%.

Compared with `COCc1ccc(NC(=O)c2c(C#Cc3cnc[nH]3)n(C3(C)CC3)c3ncnc(N)c23)cc1` [Example 191, 6-((1H-imidazol-5-yl)ethynyl)-4-amino-N-(4-(methoxymethyl)phenyl)-7-(1-methylcyclopropyl)-7H-pyrrolo[2,3-d]pyrimidine-5-carboxamide], `COCc1ccc(NC(=O)c2c(C#Cc3cncc(C#N)c3)n(C3(C)CC3)c3ncnc(N)c23)cc1` [Example 195, 4-amino-6-((5-cyanopyridin-3-yl)ethynyl)-N-(4-(methoxymethyl)phenyl)-7-(1-methylcyclopropyl)-7H-pyrrolo[2,3-d]pyrimidine-5-carboxamide] is higher in “Remaining (%)” value: 53% for the first, 70% for the second.

Going from `COCc1ccc(NC(=O)c2c(C#Cc3ccc(OC)nc3)n(C3(C)CC3)c3ncnc(N)c23)cc1` [Example 192, 4-amino-N-(4-(methoxymethyl)phenyl)-6-((6-methoxypyridin-3-yl)ethynyl)-7-(1-methylcyclopropyl)-7H-pyrrolo[2,3-d]pyrimidine-5-carboxamide] to `COCCN(C)CC#Cc1c(C(=O)Nc2ccc(COC)cc2)c2c(N)ncnc2n1C1(C)CC1` [Example 197, 4-amino-6-(3-((2-methoxyethyl)(methyl)amino)prob-1-yn-1-yl)-N-(4-(methoxymethyl)phenyl)-7-(1-methylcyclopropyl)-7H-pyrrolo[2,3-d]pyrimidine-5-carboxamide], the “Remaining (%)” value falls from 79% to 52%.

Going from `COCc1ccc(NC(=O)c2c(-c3cncnc3)n(C3(C)CC3)c3ncnc(N)c23)cc1` [Example 194, 4-amino-N-(4-(methoxymethyl)phenyl)-7-(1-methylcyclopropyl)-6-(pyrimidin-5-yl)-7H-pyrrolo[2,3-d]pyrimidine-5-carboxamide] to `COCc1ccc(NC(=O)c2c(C3=CCOCC3)n(C3(C)CC3)c3ncnc(N)c23)cc1` [Example 203, 4-amino-6-(3,6-dihydro-2H-pyran-4-yl)-N-(4-(methoxymethyl)phenyl)-7-(1-methylcyclopropyl)-7H-pyrrolo[2,3-d]pyrimidine-5-carboxamide], the “Remaining (%)” value rises from 67% to 68%.

Going from `COCc1ccc(NC(=O)c2c(C(C)O)n(C3(C)CC3)c3ncnc(N)c23)cc1` (centres unmarked) [Example 204, 4-amino-6-(1-hydroxyethyl)-N-(4-(methoxymethyl)phenyl)-7-(1-methylcyclopropyl)-7H-pyrrolo[2,3-d]pyrimidine-5-carboxamide] to `CCc1c(C(=O)Nc2ccc(COC)cc2)c2c(N)ncnc2n1C1(C)CC1` [Example 207, 4-amino-6-ethyl-N-(4-(methoxymethyl)phenyl)-7-(1-methylcyclopropyl)-7H-pyrrolo[2,3-d]pyrimidine-5-carboxamide], the “Remaining (%)” value falls from 83% to 72%.

Going from `COCc1ccc(NC(=O)c2c(C#CC3CCOCC3)n(C3(C)CC3)c3ncnc(N)c23)cc1F` [Example 205, 4-amino-N-(3-fluoro-4-(methoxymethyl)phenyl)-7-(1-methylcyclopropyl)-6-((tetrahydro-2H-pyran-4-yl)ethynyl)-7H-pyrrolo[2,3-d]pyrimidine-5-carboxamide] to `COCc1ccc(NC(=O)c2c(C#CCN3CCOCC3)n(C3(C)CC3)c3ncnc(N)c23)cc1F` [Example 206, 4-amino-N-(3-fluoro-4-(methoxymethyl)phenyl)-7-(1-methylcyclopropyl)-6-(3-morpholinoprop-1-yn-1-yl)-7H-pyrrolo[2,3-d]pyrimidine-5-carboxamide], the “Remaining (%)” value rises from 58% to 77%.
